Data on 3 compounds can be found in publication PMC3747596 (PLoS ONE, 2013).

In data set [1] the test system is mice. The following applies: cited from earlier work.
Data set [2] can be described thus: Caco-2 cell monolayer permeation. The settings on record: human, Caco-2, pH 7.4. A general note: Caco-2 monolayers are a common model of the intestinal barrier.
In data set [3] the target is T1, μ opioid receptor (Homo sapiens, UniProt P35372).
T1 construct: expressed in transfected cells
Put plainly: Radioligand displacement, μ. It counts as binding. The settings on record: binding curve File S1, Mu Opiod Receptor, [3H]DAMGO (0.3 nM), Standard Binding Buffer, read-out: Ki. (Displacement assays read how much labelled ligand stays bound in the presence of the test substance.)

Like-named read-outs stand apart in the source and are kept apart here.

T1 sequence (P35372 whole entry): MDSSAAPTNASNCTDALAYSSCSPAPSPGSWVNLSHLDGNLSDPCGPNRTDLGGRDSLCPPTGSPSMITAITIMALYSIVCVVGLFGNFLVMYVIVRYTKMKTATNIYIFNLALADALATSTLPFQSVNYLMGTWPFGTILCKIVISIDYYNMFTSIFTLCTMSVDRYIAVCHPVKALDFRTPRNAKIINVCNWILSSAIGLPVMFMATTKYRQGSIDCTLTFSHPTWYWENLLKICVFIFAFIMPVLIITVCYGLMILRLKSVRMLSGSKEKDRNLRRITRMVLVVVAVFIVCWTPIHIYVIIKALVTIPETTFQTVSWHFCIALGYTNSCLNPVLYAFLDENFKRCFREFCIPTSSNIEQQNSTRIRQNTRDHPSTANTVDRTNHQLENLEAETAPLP

Turning to `NCc1ccc2[nH]c3c(c2c1)CC1(O)C2Cc4ccc(O)c5c4C1(CCN2CC1CC1)C3O5` (stereo not shown) [5′-aminomethylnaltrindole], the toxic signs entry in data set [1] (20 mg/kg i.p.) was “gasping and convulsions”.
Consider `O=C1CC[C@@]2(O)[C@H]3Cc4ccc(O)c5c4[C@@]2(CCN3CC2CC2)[C@H]1O5` [Naltrexone], for which the LD50 (as a rule, the dose at which mortality reaches 50%) in data set [1] (mice, s.c.) is listed as 570 mg/kg. In addition, in data set [2], the Papp A→B (as a rule, the apparent permeability from the apical to the basolateral side of a cell layer) at 120 min amounted to 59 ×10⁻⁶ cm/s; the Papp B→A (in general, how fast a substance crosses the layer from the basolateral side) at 120 min amounted to 270 ×10⁻⁶ cm/s; the efflux ratio (usually a quotient of directional permeabilities that is used to spot active efflux) at 120 min was 5.7.
Turning to “DAM80: reference ligand of the mu opioid binding curve”, the figures for the Ki in data set [3] (listed as DAM30) and in data set [3] were 0.41 nM and 0.54 nM, respectively.
